Reference: US8007833B2, “Method of reducing infections and/or air embolisms associated with vascular access procedures” (Biolife, L.L.C., priority 2009, dated 2011)

Tests used:
Assay in all cases: Biofilm Eradication with Calgary Biofilm Device
Type in all cases: cell-based
S. epidermidis = test system: S. epidermidis
Excerpt: (§1) VI. Biofilm Eradication with Calgary Biofilm Device [Innovotech]
(§2) Minimum Inhibitory Concentration (MIC) Breakpoints

S. aureus = test system: S. aureus
Excerpt: as §1, §2

MRS. epidermidis = test system: MRS. epidermidis
Excerpt: as §1
(§3) Minimum Bactericidal Concentration (MBC) Breakpoints
(§4) Minimum Biofilm Eradication Concentration (MBEC) Breakpoints
(§5) Minimum Concentration that Kills Biofilms with Log R of 3 or Higher

MRS. aureus = test system: MRS. aureus
Excerpt: as §1, §3, §4, §5

P. aeruginosa = test system: P. aeruginosa
Excerpt: as §1, §2, §3, §4, §5

Substance: Gentamicin
- Minimum Inhibitory Concentration (MIC) Breakpoints (S. epidermidis): <8 µg/mL
- Minimum Inhibitory Concentration (MIC) Breakpoints (S. aureus): <8 µg/mL
- Minimum Bactericidal Concentration (MBC) Breakpoints (MRS. epidermidis; MRS. epidermidis): <8 µg/mL
- Minimum Biofilm Eradication Concentration (MBEC) Breakpoints (MRS. epidermidis; MRS. epidermidis biofilm): >1024 µg/mL
- Minimum Concentration that Kills Biofilms with Log R of 3 or Higher (MRS. epidermidis; MRS. epidermidis biofilm): >1024 ug/mL
- Log 10 Reduction (MRS. epidermidis; MRS. epidermidis biofilm, at any concentration): ≤ 3
- Minimum Bactericidal Concentration (MBC) Breakpoints (MRS. aureus; MRS. aureus): <16 µg/mL
- Minimum Biofilm Eradication Concentration (MBEC) Breakpoints (MRS. aureus; MRS. aureus biofilm): 1024 µg/mL
- Minimum Concentration that Kills Biofilms with Log R of 3 or Higher (MRS. aureus; MRS. aureus biofilm): 1024 ug/mL
- Log 10 Reduction (MRS. aureus; MRS. aureus biofilm, at only 1024 ug/mL): greater than 3
- Minimum Bactericidal Concentration (MBC) Breakpoints (P. aeruginosa; P. aeruginosa): <8 µg/mL
- Minimum Inhibitory Concentration (MIC) Breakpoints (P. aeruginosa; P. aeruginosa): <8 µg/mL
- Minimum Biofilm Eradication Concentration (MBEC) Breakpoints (P. aeruginosa; P. aeruginosa biofilm): >1024 µg/mL
- Minimum Concentration that Kills Biofilms with Log R of 3 or Higher (P. aeruginosa; P. aeruginosa biofilm): 64 ug/mL
- Log 10 Reduction (P. aeruginosa; P. aeruginosa biofilm, at 256 ug/mL, 128 ug/mL and 64 ug/mL): greater than three
